From publication PMC9967275, “Screening the Pathogen Box to Discover and Characterize New Cruzain and TbrCatL Inhibitors” (Pathogens, 2023)

How the values were obtained:
TbrCatL = molecular target: T1, TbrCatL (Trypanosoma brucei rhodesiense, UniProt Q95PM0); test: TbrCatL enzymatic inhibition assay (cleavage of fluorogenic substrate Z-FR-AMC); format: biochemical; details: for TbrCatL 0’ Inhibition / TbrCatL 10’ Inhibition: sheet "Screening results"
T1 construct: Conor Caffrey (University of California San Diego)
Method in brief: (§1)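 Recombinant enzymes assayed by Z-Phe-Arg-AMC cleavage at 25 °C, fluorescence 340/440 nm over 5–7 min, with 10 min or no enzyme–compound preincubation.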

cruzain = cruzain (Trypanosoma cruzi, UniProt P25779); test: biochemical; details: for Cruzain 0’ Inhibition / Cruzain 10’ Inhibition: sheet "Screening results"
Method in brief: as §1

[1] = 0’ (no pre-incubation), sheet Screening results
[2] = 10’ (pre-incubation), sheet Screening results
[3] = 0’ (pre-incubation time), Pathogen Box screening results
[4] = 10’ (pre-incubation time), Pathogen Box screening results
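Further: at 5 µM compound concentration.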

Chain of cruzain (P25779 123-337 limits assumed): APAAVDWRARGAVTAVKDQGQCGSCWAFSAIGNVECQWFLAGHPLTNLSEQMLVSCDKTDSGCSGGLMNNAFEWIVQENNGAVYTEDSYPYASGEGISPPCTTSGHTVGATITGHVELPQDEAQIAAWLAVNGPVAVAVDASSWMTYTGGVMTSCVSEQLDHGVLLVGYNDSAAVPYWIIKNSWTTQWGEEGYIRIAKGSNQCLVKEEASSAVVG
T1 sequence (Q95PM0 entry or part of it): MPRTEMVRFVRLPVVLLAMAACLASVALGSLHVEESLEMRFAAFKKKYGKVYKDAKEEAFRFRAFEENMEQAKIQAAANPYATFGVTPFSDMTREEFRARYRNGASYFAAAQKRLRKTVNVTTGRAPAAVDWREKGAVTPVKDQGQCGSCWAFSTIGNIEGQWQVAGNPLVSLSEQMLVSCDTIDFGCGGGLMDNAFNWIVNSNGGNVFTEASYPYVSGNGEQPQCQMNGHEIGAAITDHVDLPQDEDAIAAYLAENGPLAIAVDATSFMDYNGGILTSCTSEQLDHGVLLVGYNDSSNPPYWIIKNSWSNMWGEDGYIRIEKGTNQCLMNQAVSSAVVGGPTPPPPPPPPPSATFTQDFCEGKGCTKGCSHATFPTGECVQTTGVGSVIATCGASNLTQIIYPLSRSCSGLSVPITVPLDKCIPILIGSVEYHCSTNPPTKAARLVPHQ

With C[C@H](C(N)=O)N1CCCC[C@H]1c1ccc(OCc2cccc(F)c2)cc1 [MMV676269] the “TbrCatL 0’ Inhibition” value (TbrCatL; 0’ (pre-incubation time)) was -3%, the “TbrCatL 10’ Inhibition” value (TbrCatL; 10’ (pre-incubation time)) was -4.7% and the “Cruzain 0’ Inhibition” value (cruzain; 0’ (pre-incubation time)) was 0.4%. For the same compound, the “Cruzain 10’ Inhibition” value (cruzain; 10’ (pre-incubation time)) was 2%.

Cc1ccc2c(c1C)NC(=O)C21NN=C(c2ccccc2)S1 (stereo not shown) [MMV019189] was tested, and the “TbrCatL Inhibition 0’” value (TbrCatL; [1]) was -21%, the “TbrCatL Inhibition 10’” value (TbrCatL; [2]) was 14% and the “Cruzain Inhibition 0’” value (cruzain; [1]) was -17%. The “Cruzain Inhibition 10’” value (cruzain; [2]) was -22%.

In the case of COc1cncc(-c2cncc(N3CCN(c4ccncc4)CC3)n2)c1 [MMV085071], the “TbrCatL 0’ Inhibition” value (TbrCatL; 0’ (pre-incubation time)) is reported as -0.1%, the “TbrCatL 10’ Inhibition” value (TbrCatL; 10’ (pre-incubation time)) is reported as -10% and the “Cruzain 0’ Inhibition” value (cruzain; 0’ (pre-incubation time)) is reported as 3.8%. The “Cruzain 10’ Inhibition” value (cruzain; 10’ (pre-incubation time)) was -19%.

Cc1ncc(-c2ccnc(Nc3ccc(S(C)(=O)=O)cc3)n2)n1C(C)C [MMV676604] was tested, and the “TbrCatL Inhibition 0’” value (TbrCatL; [1]) was 3%, the “TbrCatL Inhibition 10’” value (TbrCatL; [2]) was -26% and the “Cruzain Inhibition 0’” value (cruzain; [1]) was 22%. For the same compound, the “Cruzain Inhibition 10’” value (cruzain; [2]) was 3.2%.

In the case of CO/N=C(/C(=O)OC)c1ccccc1CO/N=C(/C)c1cccc(C(F)(F)F)c1 [MMV688754], the “TbrCatL Inhibition 0’” value (TbrCatL; [3]) is reported as -4%, the “TbrCatL Inhibition 10’” value (TbrCatL; [4]) is reported as -1.2% and the “Cruzain Inhibition 0’” value (cruzain; [3]) is reported as 0.9%. The “Cruzain Inhibition 10’” value (cruzain; [4]) was 3.5%.

For CCOc1ccc(-c2nc(NC(=O)CS(=O)(=O)c3ccccc3)sc2C)cc1 [MMV007638], the “TbrCatL Inhibition 0’” value (TbrCatL; [1]) was 0.6%, the “TbrCatL Inhibition 10’” value (TbrCatL; [2]) was 9% and the “Cruzain Inhibition 0’” value (cruzain; [1]) was 7%. For the same compound, the “Cruzain Inhibition 10’” value (cruzain; [2]) was 10%.

For Cc1ccc2cc(C3NC(=O)c4ccccc4N3)c(Cl)nc2c1 (stereo not shown) [MMV019807], the “TbrCatL Inhibition 0’” value (TbrCatL; [1]) was 5%, the “TbrCatL Inhibition 10’” value (TbrCatL; [2]) was 9% and the “Cruzain Inhibition 0’” value (cruzain; [1]) was 8%. For the same compound, the “Cruzain Inhibition 10’” value (cruzain; [2]) was 7%.

With COc1cc(CN2CCC3(C=Cc4ccccc43)CC2)cc2c1OCO2 [MMV688941] the “TbrCatL 0’ Inhibition” value (TbrCatL; 0’ (pre-incubation time)) was -3.2%, the “TbrCatL 10’ Inhibition” value (TbrCatL; 10’ (pre-incubation time)) was -4% and the “Cruzain 0’ Inhibition” value (cruzain; 0’ (pre-incubation time)) was 1.7%. The “Cruzain 10’ Inhibition” value (cruzain; 10’ (pre-incubation time)) was 6%.

Clc1cccc(C(c2ccc(CN3CCNCC3)cc2)n2ccnc2)c1 (stereo not shown) [MMV663250] was tested, and the “TbrCatL 0’ Inhibition” value (TbrCatL; 0’ (pre-incubation time)) was -13%, the “TbrCatL 10’ Inhibition” value (TbrCatL; 10’ (pre-incubation time)) was -1.1% and the “Cruzain 0’ Inhibition” value (cruzain; 0’ (pre-incubation time)) was -0.3%. For the same compound, the “Cruzain 10’ Inhibition” value (cruzain; 10’ (pre-incubation time)) was 10%.

In the case of CC(C)n1nc(-c2cc3c(Cl)cccc3[nH]2)c2c(N)ncnc21 [MMV688417], the “TbrCatL 0’ Inhibition” value (TbrCatL; 0’ (pre-incubation time)) is reported as -11%, the “TbrCatL 10’ Inhibition” value (TbrCatL; 10’ (pre-incubation time)) is reported as -13% and the “Cruzain 0’ Inhibition” value (cruzain; 0’ (pre-incubation time)) is reported as 5.6%. The “Cruzain 10’ Inhibition” value (cruzain; 10’ (pre-incubation time)) was -1.4%.

In the case of CN(C)CCNC(=O)N1CCCN(c2ncnc3cc(-c4ccccc4)sc23)CC1 [MMV024195], the “TbrCatL 0’ Inhibition” value (TbrCatL; 0’ (pre-incubation time)) is reported as 1.1%, the “TbrCatL 10’ Inhibition” value (TbrCatL; 10’ (pre-incubation time)) is reported as -1.4% and the “Cruzain 0’ Inhibition” value (cruzain; 0’ (pre-incubation time)) is reported as -3.2%. For the same compound, the “Cruzain 10’ Inhibition” value (cruzain; 10’ (pre-incubation time)) was 1.9%.

O=C1Nc2ccc(Br)cc2C12NCCc1c2[nH]c2ccccc12 (stereo not shown) [MMV006239] was tested, and the “TbrCatL Inhibition 0’” value (TbrCatL; [1]) was 2.6%, the “TbrCatL Inhibition 10’” value (TbrCatL; [2]) was 2.6% and the “Cruzain Inhibition 0’” value (cruzain; [1]) was 7.5%. For the same compound, the “Cruzain Inhibition 10’” value (cruzain; [2]) was 2.2%.

CCCCc1ccc(NC(=O)Nc2ccc(O[C@H]3CCCC[C@@H]3N(C)c3ccccc3)c(F)c2)cc1 [MMV676063] was tested, and the “TbrCatL 0’ Inhibition” value (TbrCatL; 0’ (pre-incubation time)) was -17%, the “TbrCatL 10’ Inhibition” value (TbrCatL; 10’ (pre-incubation time)) was -15% and the “Cruzain 0’ Inhibition” value (cruzain; 0’ (pre-incubation time)) was -13%. For the same compound, the “Cruzain 10’ Inhibition” value (cruzain; 10’ (pre-incubation time)) was -3.3%.

c1ccc(Oc2ccc(-c3cc(N4CCOCC4)n[nH]3)cc2)cc1 [MMV045105] was tested, and the “TbrCatL 0’ Inhibition” value (TbrCatL; 0’ (pre-incubation time)) was 2%, the “TbrCatL 10’ Inhibition” value (TbrCatL; 10’ (pre-incubation time)) was 22% and the “Cruzain 0’ Inhibition” value (cruzain; 0’ (pre-incubation time)) was 1.3%. For the same compound, the “Cruzain 10’ Inhibition” value (cruzain; 10’ (pre-incubation time)) was 29%.

CCOc1ccc(-c2nc(CNCCc3ccc(F)cc3)cs2)cc1 [MMV688938] was tested, and the “TbrCatL 0’ Inhibition” value (TbrCatL; 0’ (pre-incubation time)) was 3%, the “TbrCatL 10’ Inhibition” value (TbrCatL; 10’ (pre-incubation time)) was -3.6% and the “Cruzain 0’ Inhibition” value (cruzain; 0’ (pre-incubation time)) was 6%. The “Cruzain 10’ Inhibition” value (cruzain; 10’ (pre-incubation time)) was 12%.

For CC(=O)OC[C@H]1O[C@@H]([S-])[C@H](OC(C)=O)[C@@H](OC(C)=O)[C@@H]1OC(C)=O.CC[PH+](CC)CC.[Au] [MMV688978], the “TbrCatL Inhibition 0’” value (TbrCatL; [3]) was -13%, the “TbrCatL Inhibition 10’” value (TbrCatL; [4]) was -63% and the “Cruzain Inhibition 0’” value (cruzain; [3]) was -20%. For the same compound, the “Cruzain Inhibition 10’” value (cruzain; [4]) was -71%.

With Nc1ncnc2c1c(-c1cnc3ccccc3c1)nn2CC1CCNCC1 [MMV688411] the “TbrCatL 0’ Inhibition” value (TbrCatL; 0’ (pre-incubation time)) was 1.7%, the “TbrCatL 10’ Inhibition” value (TbrCatL; 10’ (pre-incubation time)) was 3.7% and the “Cruzain 0’ Inhibition” value (cruzain; 0’ (pre-incubation time)) was -0.3%. The “Cruzain 10’ Inhibition” value (cruzain; 10’ (pre-incubation time)) was 5.5%.

In the case of CC(C)(C)C(O)C(Oc1ccc(-c2ccccc2)cc1)n1cncn1 (stereo not shown) [MMV688942], the “TbrCatL Inhibition 0’” value (TbrCatL; [1]) is reported as 13%, the “TbrCatL Inhibition 10’” value (TbrCatL; [2]) is reported as -1.4% and the “Cruzain Inhibition 0’” value (cruzain; [1]) is reported as 14%. For the same compound, the “Cruzain Inhibition 10’” value (cruzain; [2]) was 9%.

With CCC(NC(=O)c1ccccc1NC(=O)c1ccc(C)cc1)C(=O)OC (stereo not shown) [MMV019551] the “TbrCatL 0’ Inhibition” value (TbrCatL; 0’ (pre-incubation time)) was -0.4%, the “TbrCatL 10’ Inhibition” value (TbrCatL; 10’ (pre-incubation time)) was 3.2% and the “Cruzain 0’ Inhibition” value (cruzain; 0’ (pre-incubation time)) was -0.5%. For the same compound, the “Cruzain 10’ Inhibition” value (cruzain; 10’ (pre-incubation time)) was 1.2%.

For Cc1ccc(NC(=O)c2nc[nH]c2C(=O)Nc2nc3ccccc3[nH]2)c(C)c1 [MMV011903], the “TbrCatL Inhibition 0’” value (TbrCatL; [1]) was -18%, the “TbrCatL Inhibition 10’” value (TbrCatL; [2]) was -43% and the “Cruzain Inhibition 0’” value (cruzain; [1]) was -1.2%. For the same compound, the “Cruzain Inhibition 10’” value (cruzain; [2]) was -15%.

For CC(C(=O)Nc1ccc2oc(-c3ccncc3)nc2c1)c1ccccc1 (stereo not shown) [MMV688471], the “TbrCatL Inhibition 0’” value (TbrCatL; [1]) was 26%, the “TbrCatL Inhibition 10’” value (TbrCatL; [2]) was 20% and the “Cruzain Inhibition 0’” value (cruzain; [1]) was 19%. For the same compound, the “Cruzain Inhibition 10’” value (cruzain; [2]) was 15%.

In the case of Cc1cc(C)n(-c2ccc(NC(=O)C3CCN(Cc4cnc(C)s4)CC3)cc2)n1 [MMV007625], the “TbrCatL 0’ Inhibition” value (TbrCatL; 0’ (pre-incubation time)) is reported as 1.5%, the “TbrCatL 10’ Inhibition” value (TbrCatL; 10’ (pre-incubation time)) is reported as -1.8% and the “Cruzain 0’ Inhibition” value (cruzain; 0’ (pre-incubation time)) is reported as 5%. The “Cruzain 10’ Inhibition” value (cruzain; 10’ (pre-incubation time)) was 1.6%.

For Cc1cccc(NC(=O)c2cc(S(=O)(=O)N(C)c3ccc(F)cc3)ccc2Cl)n1 [MMV676528], the “TbrCatL Inhibition 0’” value (TbrCatL; [1]) was -3%, the “TbrCatL Inhibition 10’” value (TbrCatL; [2]) was 1.8% and the “Cruzain Inhibition 0’” value (cruzain; [1]) was 3.7%. For the same compound, the “Cruzain Inhibition 10’” value (cruzain; [2]) was 6%.

FC(F)(F)c1cccc(-c2nc3c(NCc4ccncc4)nccc3[nH]2)c1 [MMV032967] was tested, and the “TbrCatL 0’ Inhibition” value (TbrCatL; 0’ (pre-incubation time)) was -7%, the “TbrCatL 10’ Inhibition” value (TbrCatL; 10’ (pre-incubation time)) was 1.3% and the “Cruzain 0’ Inhibition” value (cruzain; 0’ (pre-incubation time)) was -4.6%. For the same compound, the “Cruzain 10’ Inhibition” value (cruzain; 10’ (pre-incubation time)) was -2.4%.

In the case of CCCn1c(CNc2ccccc2O)nc2ccccc21 [MMV676445], the “TbrCatL Inhibition 0’” value (TbrCatL; [1]) is reported as 6%, the “TbrCatL Inhibition 10’” value (TbrCatL; [2]) is reported as 3.3% and the “Cruzain Inhibition 0’” value (cruzain; [1]) is reported as 1.2%. For the same compound, the “Cruzain Inhibition 10’” value (cruzain; [2]) was 3.6%.

For C[C@H](c1ccc2c(c1)CCCC2)N(C)c1ncc2c(N)nc(N)nc2n1 [MMV690103], the “TbrCatL 0’ Inhibition” value (TbrCatL; 0’ (pre-incubation time)) was -18%, the “TbrCatL 10’ Inhibition” value (TbrCatL; 10’ (pre-incubation time)) was -22% and the “Cruzain 0’ Inhibition” value (cruzain; 0’ (pre-incubation time)) was -2.7%. The “Cruzain 10’ Inhibition” value (cruzain; 10’ (pre-incubation time)) was 16%.

In the case of O=C(NCCc1c[nH]c2ccccc12)c1cc2ccccc2oc1=O [MMV676539], the “TbrCatL Inhibition 0’” value (TbrCatL; [1]) is reported as 10%, the “TbrCatL Inhibition 10’” value (TbrCatL; [2]) is reported as 20% and the “Cruzain Inhibition 0’” value (cruzain; [1]) is reported as 14%. For the same compound, the “Cruzain Inhibition 10’” value (cruzain; [2]) was 14%.

For Clc1cccc(CO[C@H]2CCc3ccccc3[C@@H]2n2ccnn2)c1 [MMV676159], the “TbrCatL 0’ Inhibition” value (TbrCatL; 0’ (pre-incubation time)) was -13%, the “TbrCatL 10’ Inhibition” value (TbrCatL; 10’ (pre-incubation time)) was -6% and the “Cruzain 0’ Inhibition” value (cruzain; 0’ (pre-incubation time)) was -3%. The “Cruzain 10’ Inhibition” value (cruzain; 10’ (pre-incubation time)) was -1.8%.
